Key:
heart vasculature = assay: In vivo phage homing to the heart after intravenous injection; settings: peptide displayed on T7Select 415-1 phage, assayed individually, intravenous injection into mice
Description: In vivo panning was performed as follows. The ex vivo-selected phage pool (5 x 10^9 p.f.u.) was intravenously injected into mice through the tail vein and allowed to circulate for ten minutes before mice were carefully perfused through the left ventricle with DMEM in order to remove unbound intravascular phage. The heart and control tissues (brain, kidney, skin and muscle) were excised, and phage recovered as described in Hoffman et al., supra, 2004. Phage recovered from the heart were reinjected into mice, and the cycle was repeated for a total of three rounds. Non-recombinant phage were injected into a separate mouse as a control in each experiment.
As summarized in Table 1, receptor clone 5 represents the carboxy-terminal 92 amino acids of heart LIM-protein (HLP), also designated cysteine-rich protein 2 (CRIP2) and ESP 1. HLP, which is expressed in the vascular heart (Yu et al., Mech. Dev. 116:187-192 (2002)) is a LIM domain-containing protein having homology to Crp-1 (Karim et al., Genomics 31:167-176 (1996); and van Ham et al., Genes Cells 8:631-644 (2003)). Of the five positive colonies from the two-hybrid analysis with the HLP clone, three cognate peptides were identified: CRPPR (SEQ ID NO: 1) was present twice, CGRKSKTVC (SEQ ID NO: 2) once and CGNQVDSRC (SEQ ID NO: 3) twice. After cloning these peptides into the T7Select 415-1 display vector, they were assayed for their ability to home to heart vasculature following intravenous injection. Relative to non-recombinant phage, the CRPPR (SEQ ID NO: 1)-displaying phage homed with more than 300 fold selectivity to the heart (Figure 2A).
Individual phage clones were reconstructed as follows. Oligonucleotides that encoded peptides from selected bait plasmids were synthesized, phosphorylated with T4 polynucleotide kinase (PNK; NEB) at 37°C for one hour, and annealed at a concentration of 0.08 pmol/µl. The annealed inserts were diluted to 0.04 pmol/µl and ligated into T7Select 415-1 arms (Novagen) with T4 ligase overnight at 16°C. The next day, intact recombinant phage were prepared by mixing the ligation reaction with packaging extracts as described by the manufacture. Inserts were confirmed by sequencing, and individual clones were amplified for ex vivo and in vivo testing as described in Example I above.

heart endothelia = assay: Phage localization in tissues: co-injection with fluorescein-conjugated tomato lectin, anti-T7 immunostaining; format: in vivo, mice; settings: peptide displayed on phage, anti-T7 antibody; for phage presence in heart endothelia: injected intravenously with fluorescein-conjugated tomato lectin; for phage detection in tissues other than heart: same conditions
Description: Further characterization was performed on the five most efficient homing peptides, as indicated by the fold-selectivity summarized in Table 1, and their putative receptors. These homing peptides were analyzed for the ability to selectively bind heart endothelia in vivo and for specific binding to their putative receptors, which also were analyzed for expression in heart endothelia. Each of the phage-displaying a particular homing peptide was individually injected intravenously into mice with fluorescein-conjugated tomato lectin, a blood vessel marker. […] None of the six phage were detected in tissues other than heart under the same conditions.
Immunohistochemistry was performed as follows. Rat monoclonal anti-mouse CD31 (1:100) was obtained from BD Pharmingen (San Jose, CA), and rabbit polyclonal anti-T7 phage (1:500), and chicken anti-mouse CRIP2 IgY (1:100) were obtained from GenWay (San Diego, CA). Secondary antibodies, AlexaFluor-488 goat anti-rat IgG (1:1000) and AlexaFluor-594 goat anti-rat or rabbit IgG (1:1000) were obtained from Molecular Probes (Eugene, OR); the secondary antibody GAYFC-AlexaFluor 594 goat anti-IgY Fc (1:250) was obtained from GenWay. Frozen sections were preincubated with blocking buffer (5% normal goat serum and 0.5% BSA in 1x PBS) for one hour, washed three times with PBS, and incubated with the primary antibody of interest overnight at 4°C. After the overnight incubation, secondary antibodies were added and incubated for one hour at room temperature. Slides were washed three times with PBS and mounted in Vectashield Mounting Medium with DAPI (Vector Laboratories; Burlingame, California). Blood vessels were additionally visualized by intravenous injection with Lycopersicon esculentum (tomato) lectin conjugated to fluorescein (100 µg in 200 µl of PBS) purchased from Vector Laboratories.

bc10 = assay: Phage binding to 293T cells transfected with cognate receptor, with free peptide competition; design: species or system murine
Description: (§1) Full-length cDNAs were constructed for four of the putative heart homing receptors, HLP/CRIP2, Sigirr/TIR8, and MpcII-3-related protein and bc10, and expressed in 293T cells. […]
(§2) Receptor transfections and phage binding assays were performed as follows. 293T cells were transfected with pMH6-derived plasmids (Roche Diagnostics; Indianapolis, IN) encoding HLP/CRIP2, Sigirr/TIR8, MpcII-3-retated protein and bc10 using the Fugene transfection reagent (Roche Diagnostics). Briefly, 10 µg of plasmid was mixed with 700 µl of serum-free DMEM and 30 µl of Fugene transfection reagent and incubated for 15 minutes at room temperature before the mixture was added to cells. After forty-eight hours, cells were detached from culture dishes using EDTA and washed once with PBS. Phage displaying CRPPR (SEQ ID NO: 1), CKRAVR (SEQ ID NO: 7), CRSTRANPC (SEQ ID NO: 11) or CPKTRRVPC (SEQ ID NO: 12) and nonrecombinant control phage (1 x 10^9 p.f.u) were incubated with transfected cells for two hours at 4°C. Unbound phage were removed by five washes with 1% BSA in PBS. Bound phage were rescued by addition of bacteria; binding efficiencies were determined by plaque assay as described above.
(§3) Peptides for competition assays were synthesized at The Burnham Institute peptide facility using Fmoc chemistry in a solid-phase synthesizer prior to purification by HPLC and confirmation of their identity by mass spectrometry. Fluorescein-conjugated peptides were synthesized as described in Wender et al., Proc. Natl. Acad. Sci. USA 97:13003-13008 (2000). Competition assays were performed by addition of 100 µg peptide to the cells and phage, followed by incubation at 4°C for two hours. After five washes with […], bound phage were rescued and quantitated by plaque assay.

MpcII-3-related protein = assay: as above; design: species or system murine
Description: as §1, §2, §3

[1] = conclusion from phage binding and competition on transfected 293T cells

Row | Sequence | heart homing selectivity relative to non-recombinant phage (heart vasculature) | phage presence in heart endothelia (heart endothelia) | phage detection in tissues other than heart (heart endothelia) | specific binding to the receptor (in words) (bc10; [1]) | inhibition of phage binding to transfected cells by competition with free peptide (bc10; free synthetic peptide 100 µg/ml, CPKTRRVPC phage on bc10 transfected cells) | specific binding to the receptor (in words) (MpcII-3-related protein; [1]) | inhibition of phage binding to transfected cells by competition with free peptide (MpcII-3-related protein; free synthetic peptide 100 mg/ml, CRSTRANPC phage on cells transfected with MpcII-3-related protein)
1 | CGRKSKTVC | about 50 fold | – | – | – | – | – | –
2 | CLIDLHVMC [peptide identified with receptor clone 27; phage served as a negative control] | – | absent from the heart | absent from the heart and other tissues | – | – | – | –
3 | CPKTRRVPC [tested on phage and as free peptide] | about 60 fold | present in heart endothelia | absent from other tissues | specifically binds | inhibited | – | –
4 | CRSTRANPC [tested on phage and as free peptide] | about 20 fold | present in heart endothelia | absent from other tissues | – | – | specifically binds | inhibited
5 | CSGMARTKC | ~10 fold | – | – | – | – | – | –
